Test results: PMC8067507, “Aryl Urea Based Scaffolds for Multitarget Drug Discovery in Anticancer Immunotherapies” (Pharmaceuticals, 2021)

Tests used:
[1] = system: HT-29 (colon adenocarcinoma); test: Cell proliferation assay (MTT); assay type: cell-based; settings: Homo sapiens, HT-29, 48 h, 2 days incubation, average ± SD of three experiments
[2] = system: HMEC-1 (human microvascular endothelial cells); test: Cell proliferation assay (MTT); assay type: cell-based; settings: HMEC-1, 48 h, 2 days incubation, average ± SD of three experiments
HMEC-1 cells = test: Tube formation inhibition assay; assay type: cell-based, human; settings: HMEC-1 on Matrigel, 20 h incubation; average of three experiments
Description: HT-29, MCF-7, HeLa, A549 and HEK-293 cell lines were maintained in Dulbecco’s modified Eagle’s medium (DMEM) containing glucose (1 g/L), glutamine (2 mM), penicillin (50 μg/mL), streptomycin (50 μg/mL), and amphotericin B (1.25 μg/mL), supplemented with 10% FBS. HMEC-1 cell line was maintained in Dulbecco’s modified Eagle’s medium (DMEM)/low glucose containing glutamine (2 mM), penicillin (50 μg/mL), streptomycin (50 μg/mL), and amphotericin B (1.25 μg/mL), supplemented with 10% FBS. For the development of tube formation assays in Matrigel, HMEC-1 cells were cultured in EGM-2MV Medium supplemented with EGM-2MV SingleQuots.
Wells of an IBIDI μ-slide angiogenesis (IBIDI, Martinsried, Germany) were coated with 12 μL of Matrigel® (10 mg/mL, BD Biosciences) at 4 °C. After gelatinization at 37 °C for 30 min, HMEC-1 cells were seeded at 2 × 10^4 cells/well in 35 μL of culture medium on top of the Matrigel and were incubated 30 min at 37 °C while are attached. Then, compounds were added dissolved in 35 μL of culture medium and after 20 h of incubation at 37 °C, tube destruction was evaluated.

PD-L1 = PD-L1 (Homo sapiens, UniProt Q9NZQ7); test: PD-L1 quantification by flow cytometry in HT-29; assay type: cell-based; settings: HT-29, 10 μM, 24 h, referred to control (DMSO)
PD-L1, sequence (Q9NZQ7 19-290): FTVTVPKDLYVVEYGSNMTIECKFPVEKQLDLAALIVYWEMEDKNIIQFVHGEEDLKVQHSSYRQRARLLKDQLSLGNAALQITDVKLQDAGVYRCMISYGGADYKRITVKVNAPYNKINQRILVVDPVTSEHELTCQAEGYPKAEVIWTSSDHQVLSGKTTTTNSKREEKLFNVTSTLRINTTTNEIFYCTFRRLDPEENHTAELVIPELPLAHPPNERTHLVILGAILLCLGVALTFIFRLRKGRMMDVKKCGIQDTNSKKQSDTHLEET
Description: We evaluated the effect of the selected compounds on PD-L1 and on c-Myc proteins by flow cytometry after 24 h treatment at 10 μM concentration of compounds. Both, PD-L1 and c-Myc were relatively determined using DMSO treated cells as a negative control and BMS-8 as a positive one.
For the detection of total PD-L1 and c-Myc, cancer cells were seeded (3 × 10^5 cells/well) in 6-well plates and were incubated with the corresponding compounds for 24 h. Then they were collected, fixed, treated with 0.5% Triton^TM X-100 and stained with Alexa Fluor® 647 Rabbit monoclonal Anti-PD-L1 (ab215251) and FITC Rabbit monoclonal anti-c-Myc (ab223913).
We also checked results performing ELISA tests. For ELISA tests, lysates were collected, protein quantification was carried out by Bradford test and, then, PD-L1 and c-Myc were quantified using Human PD-L1 ELISA Kit 28-8 (ab214565) and c-Myc (Total) Human ELISA Kit (KHO2041), respectively, according to the manufacturer’s instructions.

Jurkat T cells = test: Jurkat T cell proliferation and population distribution in co-cultures with HT-29; assay type: cell-based, human; settings: co-cultured with HT-29, 10 μM, 24 h
Text: We also determine Jurkat T cell proliferation in those co-cultures from the corresponding media by flow cytometry. […] All samples provided similar population distribution except by those treated with Compound 16, in which an enhancement of size and complexity is observed.
Data provided in Figure 7 show the density of living Jurkat T cells in the treated co-cultures with HT-29. The graphics include cell distribution population by size and complexity in each case.
In 12-well plates, 10^5 HT-29 cells per well were seeded and incubated for 24 h with cell culture medium supplemented with IFN-γ (10 ng/mL; human, Invitrogen®) then medium was change by one containing 4 × 10^5 Jurkat T cells per well and 10 μM of the corresponding compound or DMSO for the control. After 24 h of incubation, supernatants were collected to determine Jurkat T cell living cells and, on the other hand, HT-29 cells were collected with trypsin. Both types of suspension cells were counted with the Neubauer chamber and trypan blue and also by flow cytometry.

COc1ccc(/C=C\c2cccc(NC(=O)Nc3ccc(Br)cc3)c2)cc1 [Compound 16]
IC50 [1]: 17 ± 1 µM
IC50 [2]: 27 ± 8 µM
Minimum Active Conc. (inhibition of tube formation) (HMEC-1 cells): 10 µM
PD-L1 (%) relative expression (PD-L1): 17 ± 5%
effect on Jurkat T cell proliferation (Jurkat T cells): hardly affect proliferation of T cell
effect on T cell size and complexity (morphology) (Jurkat T cells): an increase on their size and complexity
